Assay results from article PMC13379085 (PLOS Neglected Tropical Diseases, 2026).
In brackets after ≈: the same amount, converted by molar mass. Like-named read-outs stand apart in the source and are kept apart here.

Key:
[1] = tested on: Extracellular L. donovani promastigotes; experiment: Resazurin viability assay of extracellular L. donovani promastigotes; assay type: cell-based, Leishmania donovani; conditions: for Extracellular L. donovani promastigotes MIC50: 72-hour incubation
Procedure: (§1) The effect of compounds on extracellular promastigotes was evaluated using a resazurin-based assay as described previously. In short, late log phase Leishmania promastigotes were seeded in a 96 well plate at 1 x 10^5 parasites per well and treated with drugs (0.5 – 200 µM) for 72 hours at 25°C. Ten microliters of Resazurin (0.02% w/v) were added to the treated parasites to achieve a final concentration of 0.002% w/v and incubated for 24 hours. Viability of the promastigotes was assessed by fluorescence (excitation 544 nm, emission 590 nm, SpectraMax M2, Molecular Devices).

[2] = tested on: Intracellular L. donovani amastigotes; experiment: Image-based Giemsa staining of intracellular L. donovani in bone marrow derived macrophages; assay type: cell-based, Leishmania donovani; conditions: 72-hour incubation
Procedure: (§2) Bone marrow derived macrophages (BMDMs) were isolated from BALB/c mice and cultured as previously described. […] Completely differentiated BMDMs are obtained after 7 days of culture with media change every 2 days. Harvested cells are seeded onto 10 mm glass cover slips at 5 x 10^5 cells/ well of a 24 well plate in DMEM media (without LCM) and allowed to adhere overnight. BMDM cells are then infected overnight with LV82 L. donovani or L. mexicana (NR-51210) at a multiplicity of infection of 10. After infection, cells were washed three times with fresh media to remove extracellular promastigotes and treated with compounds for a 72-hour incubation. BMDM cells were then washed with phosphate buffered saline, fixed with ice-cold methanol, and stained with Giemsa (5% v/v in water). The cover slips with stained cells are mounted onto glass slides and imaged on EVOS XL (100X, Thermo Fisher Scientific). Leishmania amastigotes per 100 macrophages were determined in a blinded manner.

THP-1 macrophages = experiment: MTT viability of THP-1 macrophages (host cell cytotoxicity); assay type: cell-based; conditions: for CC50: MTT assay
Procedure: Human monocytes, THP-1 (ATCC, TIB002) were used as host cells for Leishmania infection and to assess drug cytotoxicity. The cells were cultured at 37C, 5% CO2 in RPMI medium (ATCC) supplemented with 10% FBS, 1% Penicillin/Streptomycin and 0.05 mM of β-mercaptoethanol. Cells were used in experiments up to passage 10.
Effect of the compounds on THP-1 cell viability measured using thiazolyl blue tetrazolium bromide which measures cell metabolic activity (MTT). […] Macrophages were then treated with compounds resuspended in RPMI media (1–50 µM) for 24 hours. Media was replaced with thiazolyl blue tetrazolium bromide solubilized in RPMI media (0.5 mg/mL) and incubated at 37°C for 2 hours. The reduced formazan crystals were solubilized with isopropyl alcohol and the absorbance of the resulting solution was measured at 560 nm with a background subtraction at 670 nm. […] This process was repeated with a 72-hr incubation and extended concentration range (1–300 µM) for select compounds.

[3] = tested on: Intracellular L. donovani amastigotes; experiment: Luminescence-based assay of intracellular L. donovani burden in THP-1 macrophages; assay type: cell-based, Leishmania donovani; conditions: for IC50: THP1 macrophages, luminescence assay, 72 hours of treatment, read-out: Intracellular L. donovani amastigotes Lum IC50; for Selectivity 24h LC50/ Lum IC50: host-directed effect vs cytotoxicity in THP-1
Procedure: Luminescent strains, L. donovani LV82 expressing firefly luciferase (a kind gift from Dr. Abhay Satoskar, Ohio State University) and L. mexicana (NR-51210, ATCC) expressing renilla luciferase were used to evaluate the effect of the compounds in intracellular and extracellular conditions. Wild-type L. donovani LV82 (ATCC) were used for Giemsa staining based experiments. All parasites were cultured at 25°C and 5% CO2 in M199 media (Corning) supplemented with 10% FBS, 1% Penicillin/Streptomycin, and Hemin (0.01 mg/mL), and used in experiments up to passage 15.
THP-1 cells were seeded in a 96 well plate (25,000 cells/well) overnight then differentiated with 150 nM phorbol 12-myristate 13-acetate (PMA) over 72 hours (S1 Fig). […] Briefly, promastigotes of a known cell density were resuspended in RPMI media (with 10% FBS, 1% P/S and 0.05 mM β-mercaptoethanol) and incubated with adhered THP-1 cells over 18 hours. After infection, cells were washed three times with fresh media to remove extracellular promastigotes.
Infected macrophages were then treated with compounds solubilized in DMSO ranging from 0.1-10 µM in concentrations. After 72 hours of treatment, the viability of the amastigotes within macrophages was determined using Promega firefly luminescence assay (Cat E1500) or Pierce Renilla luciferase assay (Cat 16166) for L. donovani and L. mexicana strains, respectively. Briefly, media was removed, and cells were lysed with the assay lysis buffer. The luciferase substrate was then incubated with the lysed cells for 10 min at room temperature and luminescence of live Leishmania was measured in a white opaque 96 well plate using a Biotek plate reader.

L. donovani = conditions: cited from earlier work
[4] = tested on: Extracellular L. mexicana promastigotes; experiment: Resazurin viability assay of extracellular L. mexicana promastigotes; assay type: cell-based, Leishmania mexicana; conditions: Leishmania mexicana, 72-hour incubation
Procedure: as §1

[5] = tested on: Intracellular L. mexicana amastigotes; experiment: microbe, parasite or virus in culture; assay type: cell-based, Leishmania mexicana; conditions: Leishmania mexicana, Macrophage, 72 h, bone marrow derived macrophages, Giemsa staining, 72-hour incubation
Procedure: as §2

LV82 L. donovani = experiment: Giemsa staining of intracellular L. donovani in BMDMs from wildtype C57BL/6 or lysozyme knockout mice; assay type: cell-based, Leishmania donovani; conditions: 72-hour incubation
Excerpt: B6.129P2-Lyz2^tm1(cre)Ifo/J mice (stock #004781, herein termed ‘Lys K/O’) were obtained from Jackson Laboratory. This strain has a nuclear-localized Cre recombinase inserted into the first coding ATG of the lysozyme 2 gene (Lyz2) which eliminates endogenous Lyz2 gene function. Wildtype C57BL6/J mice (stock #000664) were obtained as a control.
Bone marrow derived macrophages (BMDMs) were isolated from both mice and cultured as described above in “Image-based Evaluation of Intracellular Anti-Leishmanial Activity”. BMDMs were seeded onto glass cover slips, infected with LV82 L. donovani at a multiplicity of infection of 1:10. Cells were washed to remove extracellular promastigotes and treated with compounds (197, amphotericin B) for a 72-hour incubation. BMDM cells were then washed with phosphate buffered saline, fixed with ice-cold methanol, and stained with Giemsa (5% v/v in water). The cover slips with stained cells are mounted onto glass slides and imaged on EVOS XL (100X, Thermo Fisher Scientific). Leishmania amastigotes per 100 macrophages were determined in a blinded manner.

[6] = 72-hour incubation, read-out: 72 hr viability of THP-1 macrophages LC50
[7] = read-out: 24 hr viability of THP-1 macrophages 24h LC50, 24-hour incubation

Row | Structure (SMILES) | Extracellular L. donovani promastigotes MIC50 [1] [µM] | IC50 [2] [µM] | CC50 (THP-1 macrophages; [6]) [µM] | CC50 (THP-1 macrophages; [7]) [µM] | IC50 [3] [µM] | also measured
1 | FC(F)(F)c1ccc(-c2ccc(-c3cc(C(F)(F)F)nn3-c3ccc(NC4CCNC4)cc3)cc2)cc1 (racemic) [Compound 25] | 2.1 | 2.5 | 6.3 | 28.9 | 0.7 | 
2 | NCC(=O)Nc1ccc(-n2nc(C(F)(F)F)cc2-c2ccc3c(ccc4ccccc43)c2)cc1 [AR-12, reference compound] |  |  |  |  |  | direct effect on the promastigote (L. donovani): no direct effect; parasite burden of L. donovani in infected macrophages (L. donovani; in vitro and in vivo): decrease the parasite burden; MIC50 [4]: 15.1 µM (≈ 6.95 µg/mL); IC50 [5]: 1.5 µM
3 | C[C@@H]1[C@H](O)[C@@H](C)/C=C/C=C/C=C/C=C/C=C/C=C/C=C/[C@H](O[C@@H]2O[C@H](C)[C@@H](O)[C@H](N)[C@@H]2O)C[C@@H]2O[C@](O)(C[C@@H](O)C[C@@H](O)[C@H](O)CC[C@@H](O)C[C@@H](O)CC(=O)O[C@H]1C)C[C@H](O)[C@H]2C(=O)O [Amphotericin B, reference compound] |  |  |  |  |  | anti-leishmanial activity in WT and Lys K/O BMDMs (LV82 L. donovani): retained its anti-leishmanial activity in both WT and Lys K/O BMDMs
4 | Nc1ccc(CNC2CCN(c3ccc(-n4nc(C(F)(F)F)cc4-c4ccc(-c5ccc(C(F)(F)F)cc5)cc4)cc3)C2)cc1 (stereo not drawn) [Compound 23] | 4.0 | 0.9 | 6.9 | 5.8 | 0.4 | 
5 | CC(C)(C)C#Cc1ccc(-c2cc(C(F)(F)F)nn2-c2ccc(N3CCNCC3)cc2)cc1 [Compound 44] | 1.9 | 1 | 14.5 | 7.4 | 0.9 | 
6 | NCC(=O)Nc1ccc(-n2cc(C(F)(F)F)nc2-c2ccc(-c3ccccc3)cc2)cc1 [Compound 50] | 14.6 | 9.1 | 42.7 | 23.5 | 1.5 | 
7 | N#Cc1cccc(CN2CCC(Nc3ccc(-n4nc(C(F)(F)F)cc4-c4ccc(-c5ccc(C(F)(F)F)cc5)cc4)cc3)C2)c1 (stereo not drawn) [Compound 53] |  |  |  |  |  | direct effects on extracellular promastigote viability ([1]; for 53 strain not specified): no direct effects; reduction in macrophage viability (THP-1 macrophages; 72 hr incubation up to 300µM): Neither compound had any reduction; MIC50 [4]: > 200 µM; Selectivity 24h LC50/ Lum IC50 [3]: >112.6
8 | O=C(Nc1ccc(-n2cc(C(F)(F)F)nc2-c2ccc(-c3ccccc3)cc2)cc1)C1CCN(Cc2ccccc2)C1 (stereo not drawn) [Compound 86] | 3.2 | 0.6 | 8.2 | 21.9 | 1.4 | 
9 | Oc1ccccc1CN1CCC(Nc2ccc(-n3nc(C(F)(F)F)cc3-c3ccc(-c4ccc(C(F)(F)F)cc4)cc3)cc2)C1 (stereo not drawn) [Compound 91] | 56.3 | 2.4 | 53.4 | > 50 | 1.4 | 
10 | N[C@@H]1CCN(c2ccc(-n3nc(C(F)(F)F)cc3-c3ccc(-c4ccc(C(F)(F)F)cc4)cc3)cc2)C1 [Compound 129] | 1.7 | 0.4 | 6.2 | 6.3 | 0.1 | 
11 | N[C@H]1CCN(c2ccc(-n3nc(C(F)(F)F)cc3-c3ccc(-c4ccc(C(F)(F)F)cc4)cc3)cc2)C1 [Compound 130] | 2.1 | 1.6 | 6.4 | 4.2 | 0.2 | 
12 | NC1CCN(c2ccc(-n3nncc3-c3ccc(C(F)(F)F)cc3)cc2)C1 (stereo not drawn) [Compound 134] |  |  |  |  |  | MIC50 [4]: 16.5 µM (≈ 6.16 µg/mL); IC50 [5]: 0.8 µM; Selectivity 24h LC50/ Lum IC50 [3]: 42.1
13 | NCC(=O)Nc1ccc(-n2ccnc2-c2ccc(-c3ccc(C(F)(F)F)cc3)cc2)cc1 [Compound 158] | 4.6 | 0.6 | 16.5 | 16 | 0.2 | intracellular activity (primary screen) ([3]; imidazole series): retaining potent intracellular activity
14 | Oc1ccc(CNC2CCN(c3ccc(-n4nc(C(F)(F)F)cc4C4CCCCC4)cc3)CC2)cc1 [Compound 319] | 0.8 | 3.4 | 7.2 | 6.4 | 0.8 | 
15 | N#Cc1ccc(CNCC(=O)Nc2ccc(-n3nc(C(F)(F)F)cc3C3CCCCC3)cc2)cc1 [Compound 354] |  |  |  |  |  | MIC50 [4]: 30.7 µM (≈ 14.8 µg/mL); IC50 [5]: 3.5 µM; Selectivity 24h LC50/ Lum IC50 [3]: 44.9
